BigSolDB 2.1

Nc1nc(N)nc(NC2CC2)n1
Details | solubility (mole fraction)
in acetic acid, 293.15 K | 0.0128
in acetic acid, 298.15 K | 0.0155
in acetic acid, 303.15 K | 0.0187
in acetic acid, 308.15 K | 0.0227
in acetic acid, 313.15 K | 0.0275
in acetic acid, 318.15 K | 0.033
in acetic acid, 323.15 K | 0.0395
in acetic acid, 328.15 K | 0.0471
in acetic acid, 333.15 K | 0.0562
in acetone, 283.15 K | 0.000486
in acetone, 288.15 K | 0.000535
in acetone, 293.15 K | 0.000617
in acetone, 298.15 K | 0.00071
in acetone, 303.15 K | 0.000805
in acetone, 308.15 K | 0.00091
in acetone, 313.15 K | 0.00103
in acetone, 318.15 K | 0.00114
in acetone, 323.15 K | 0.00127
in acrylic acid, 293.15 K | 0.0341
in acrylic acid, 298.15 K | 0.0413
in acrylic acid, 303.15 K | 0.0492
in acrylic acid, 308.15 K | 0.0581
in acrylic acid, 313.15 K | 0.0683
in acrylic acid, 318.15 K | 0.0785
in acrylic acid, 323.15 K | 0.09
in acrylic acid, 328.15 K | 0.101
in acrylic acid, 333.15 K | 0.112
in ethanol, 283.15 K | 0.000916
in ethanol, 288.15 K | 0.00107
in ethanol, 293.15 K | 0.00127
in ethanol, 298.15 K | 0.00149
in ethanol, 303.15 K | 0.00172
in ethanol, 308.15 K | 0.00205
in ethanol, 313.15 K | 0.00253
in ethanol, 318.15 K | 0.00299
in ethanol, 323.15 K | 0.00355
in isobutanol, 283.15 K | 0.000396
in isobutanol, 288.15 K | 0.000483
in isobutanol, 293.15 K | 0.000594
in isobutanol, 298.15 K | 0.000702
in isobutanol, 303.15 K | 0.00084
in isobutanol, 308.15 K | 0.000983
in isobutanol, 313.15 K | 0.00115
in isobutanol, 318.15 K | 0.00131
in isobutanol, 323.15 K | 0.0015
in isopentanol, 283.15 K | 0.000469
in isopentanol, 288.15 K | 0.000592
in isopentanol, 293.15 K | 0.000725
in isopentanol, 298.15 K | 0.00087
in isopentanol, 303.15 K | 0.00104
in isopentanol, 308.15 K | 0.00127
in isopentanol, 313.15 K | 0.00148
in isopentanol, 318.15 K | 0.0018
in isopentanol, 323.15 K | 0.00214
in isopropanol, 283.15 K | 0.000465
in isopropanol, 288.15 K | 0.000529
in isopropanol, 293.15 K | 0.000638
in isopropanol, 298.15 K | 0.000751
in isopropanol, 303.15 K | 0.000915
in isopropanol, 308.15 K | 0.00109
in isopropanol, 313.15 K | 0.00125
in isopropanol, 318.15 K | 0.00146
in isopropanol, 323.15 K | 0.00172
in methanol, 283.15 K | 0.00199
in methanol, 288.15 K | 0.00224
in methanol, 293.15 K | 0.00251
in methanol, 298.15 K | 0.00279
in methanol, 303.15 K | 0.0031
in methanol, 308.15 K | 0.00344
in methanol, 313.15 K | 0.00378
in methanol, 318.15 K | 0.00416
in methanol, 323.15 K | 0.00456
in n-butanol, 283.15 K | 0.00073
in n-butanol, 288.15 K | 0.000871
in n-butanol, 293.15 K | 0.00104
in n-butanol, 298.15 K | 0.00126
in n-butanol, 303.15 K | 0.0015
in n-butanol, 308.15 K | 0.00179
in n-butanol, 313.15 K | 0.00217
in n-butanol, 318.15 K | 0.00262
in n-butanol, 323.15 K | 0.0031
in n-heptanol, 283.15 K | 0.000235
in n-heptanol, 288.15 K | 0.000322
in n-heptanol, 293.15 K | 0.000422
in n-heptanol, 298.15 K | 0.000556
in n-heptanol, 303.15 K | 0.000737
in n-heptanol, 308.15 K | 0.000957
in n-heptanol, 313.15 K | 0.00124
in n-heptanol, 318.15 K | 0.00162
in n-heptanol, 323.15 K | 0.00213
in n-hexanol, 283.15 K | 0.000534
in n-hexanol, 288.15 K | 0.000661
in n-hexanol, 293.15 K | 0.000816
in n-hexanol, 298.15 K | 0.001
in n-hexanol, 303.15 K | 0.00123
in n-hexanol, 308.15 K | 0.00151
in n-hexanol, 313.15 K | 0.00185
in n-hexanol, 318.15 K | 0.00227
in n-hexanol, 323.15 K | 0.00279
in n-pentanol, 283.15 K | 0.000671
in n-pentanol, 288.15 K | 0.000818
in n-pentanol, 293.15 K | 0.000981
in n-pentanol, 298.15 K | 0.00119
in n-pentanol, 303.15 K | 0.00142
in n-pentanol, 308.15 K | 0.00171
in n-pentanol, 313.15 K | 0.00204
in n-pentanol, 318.15 K | 0.00245
in n-pentanol, 323.15 K | 0.00291
in n-propanol, 283.15 K | 0.000809
in n-propanol, 288.15 K | 0.000927
in n-propanol, 293.15 K | 0.00113
in n-propanol, 298.15 K | 0.00136
in n-propanol, 303.15 K | 0.00163
in n-propanol, 308.15 K | 0.00191
in n-propanol, 313.15 K | 0.00237
in n-propanol, 318.15 K | 0.00281
in n-propanol, 323.15 K | 0.00327
in propionic acid, 278.15 K | 0.00472
in propionic acid, 283.15 K | 0.00562
in propionic acid, 288.15 K | 0.00697
in propionic acid, 293.15 K | 0.00847
in propionic acid, 298.15 K | 0.0101
in propionic acid, 303.15 K | 0.0123
in propionic acid, 308.15 K | 0.0148
in propionic acid, 313.15 K | 0.0177
in propionic acid, 318.15 K | 0.0212
in sec-butanol, 283.15 K | 0.000301
in sec-butanol, 288.15 K | 0.00038
in sec-butanol, 293.15 K | 0.00048
in sec-butanol, 298.15 K | 0.000581
in sec-butanol, 303.15 K | 0.000686
in sec-butanol, 308.15 K | 0.000846
in sec-butanol, 313.15 K | 0.000995
in sec-butanol, 318.15 K | 0.0012
in sec-butanol, 323.15 K | 0.00147
in water, 283.15 K | 0.000931
in water, 288.15 K | 0.00108
in water, 293.15 K | 0.00125
in water, 298.15 K | 0.00144
in water, 303.15 K | 0.00166
in water, 308.15 K | 0.00193
in water, 313.15 K | 0.00221
in water, 318.15 K | 0.00254
in water, 323.15 K | 0.00293
